In patent US7919488B2, “Therapeutic compounds” (Pfizer Inc., priority 2006, dated 2011):

What was measured:
Format in all cases: biochemical
[1] = target: T1, CYP3A4 (Homo sapiens, UniProt P08684); test: IC50 against CYP3A4 by inhibition of testosterone metabolism in human liver microsomes; settings: 0.1 mg/mL human liver microsomes, 25 μM testosterone, 1 mM NADPH, 6-β-OH-testosterone production, eight minutes; read-out: IC50, μM (HLM, testosterone)
T1 construct: 0.1 mg/mL human liver microsomes; from tissue; host or cells: human liver microsomes
Method: 2. Determination of IC50 Against CYP3A4 by Measurement of Inhibition of Testosterone Metabolism
This assay was performed using a standard 96 well plate design. […] Quantitation of metabolite peak area ratio against an internal standard is determined by LC-MS/MS analysis. The production of 6-β-OH-testosterone from testosterone metabolism is determined after incubation for eight minutes by comparison to a standard curve generated for the metabolite
(§1) Samples were analyzed in the MRM mode using a Sciex API 3000 mass spectrometer (Applied Biosystems, Foster City, Calif.) with a Paradigm MS4 binary pump (Michrom BioResources Inc., Auburn, Calif.) and a LEAP CTC PAL autosampler (LEAP Technologies, Carrboro, N.C.). A Phenomenex Synergi, 4μ, Polar-RP, 10×2.0 mm column (Phenomenex, Torrance, Calif.) was used for separation with a mobile phase composition of: 0.1% formic acid in water (A) and: 0.1% formic acid in methanol (B). The following gradient was used: […]
(§2) The sample injection volume was 10 μL and flow was split post-column with 0.4 mL/min going to the mass spectrometer. Analysis was performed using the following API 3000 mass spectrometer settings: […]

[2] = target: T2, recombinant CYP3A4-b5 enzyme (Baculosomes®) (Homo sapiens, UniProt P08684); test: Kiapp against recombinant CYP3A4 enzyme (Baculosomes), BFC substrate; settings: recombinant CYP3A4-b5 (Invitrogen), 5 uM BFC, 200 uM NADPH, pre-incubation at least 30 minutes, pH 7.0, room temperature
T2 construct: purchased Invitrogen (Carlsbad, Calif.)
Method: 1. Determination of Compound Kiapp
A determination of the Kiapp of the compounds of the invention against recombinant CYP3A4 enzyme was performed as follows. The assay was performed in a 100 mM sodium phosphate buffer pH 7.0, 5 mM TCEP and containing 2% dimethylformamide (final concentration) upon addition of substrate and inhibitor. A typical reaction for the determination of Kiapp values was carried at room temperature in a solid black Costar u-bottom 96-well polypropylene plate. […] When pre-incubation was completed (˜30 min), the reaction was initiated by adding NADPH (200 uM, final concentration), and 7-benzyloxy-4-(trifluoromethyl)-coumarin (BFC) (5 uM, final concentration). The oxidation of the coumarin substrate was recorded by a 96-well plate reader POLARstar (BMG LABTECH, Offenburg, Germany).
The initial reaction velocities were measured during the first 5 min of the reaction when the release of the fluorescent product is linear with time, in the absence and in the presence of various concentrations of inhibitors.
The fluorescent substrate BFC was purchased from Sigma (St Louis, Mo.). Two commercial sources of recombinant enzymes were used in this study: recombinant CYP3A4-b5 enzyme (Baculosomes®) was purchased from Invitrogen (Carlsbad, Calif.) and the recombinant CYP3A4+b5 enzyme (Supersomes®) was purchased from BD Biosciences (Woburn, Mass.).

[3] = target: T1, CYP3A4; test: IC50 against CYP3A4 by inhibition of midazolam metabolism in human liver microsomes; settings: 0.1 mg/mL human liver microsomes, 2 μM midazolam, 1 mM NADPH, 1-hydroxymidazolam production, eight minutes; read-out: IC50, μM (HLM, midazolam)
Method: 3. Determination of IC50 Against CYP3A4 by Measurement of Inhibition of Midazolam Metabolism
This assay was performed using a standard 96 well plate design. […] The incubation substrate mix contains 2 μM midazolam, 0.1 mg/mL human liver microsomes, 1 mM NADPH, and potassium phosphate buffer (100 mM, pH 7.4). Quantitation of metabolite peak area ratio against internal standard is determined by LC-MS/MS analysis. The production of 1-hydroxymidazolam from midazolam metabolism is determined after incubation for eight minutes by comparison to a standard curve generated for the metabolite.
as §1, §2

T2 sequence (P08684 whole entry): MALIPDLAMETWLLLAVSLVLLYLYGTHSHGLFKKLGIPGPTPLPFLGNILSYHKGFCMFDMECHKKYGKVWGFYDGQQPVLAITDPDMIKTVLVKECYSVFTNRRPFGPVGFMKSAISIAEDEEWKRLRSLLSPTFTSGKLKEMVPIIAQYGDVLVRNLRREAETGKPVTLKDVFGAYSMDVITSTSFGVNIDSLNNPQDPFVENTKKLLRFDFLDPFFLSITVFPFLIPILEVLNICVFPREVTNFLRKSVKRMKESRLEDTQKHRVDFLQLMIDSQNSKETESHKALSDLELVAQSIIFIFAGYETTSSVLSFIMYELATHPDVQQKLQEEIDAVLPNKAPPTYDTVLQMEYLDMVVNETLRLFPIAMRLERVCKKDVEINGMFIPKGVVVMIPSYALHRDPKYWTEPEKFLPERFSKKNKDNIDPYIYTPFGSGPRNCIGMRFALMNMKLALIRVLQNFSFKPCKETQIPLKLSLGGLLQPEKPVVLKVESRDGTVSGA
T1 sequence (P08684 whole entry): as above

IC50 [1] [µM] | Ki [2] [µM] | IC50 [3] [µM] | SMILES
0.956 | 0.13 |  | COC(=O)Cn1nc(-c2ccncc2)cc1Cc1ccc(F)cc1 [Example 2, methyl [5-(4-fluorobenzyl)-3-pyridin-4-yl-1H-pyrazol-1-yl]acetate]
0.033 | 0.085 | 0.01 | O=C(Cn1nc(-c2ccncc2)cc1Cc1ccc(F)cc1)N1CCC(N2CCCC2=O)CC1 [Example 5, 1(1-{[5-(4-fluorobenzyl)-3-pyridin-4-yl-1H-pyrazol-1-yl]acetyl}piperidin-4-yl)pyrrolidin-2-one]
0.273 | 0.547 | 0.114 | NC1CCN(C(=O)Cn2nc(-c3ccncc3)cc2Cc2ccc(F)cc2)CC1 [Example 8, 1-{[5-(4-fluorobenzyl)-3-pyridin-4-yl-1H-pyrazol-1-yl]acetyl}piperidin-4-amine]
0.056 | 0.202 |  | CC(C)NC1CCN(C(=O)Cn2nc(-c3ccncc3)cc2Cc2ccc(F)cc2)CC1 [Example 9, 1-{[5-(4-fluorobenzyl)-3-pyridin-4-yl-1H-pyrazol-1-yl]acetyl}-N-isopropylpiperidin-4-amine]
0.033 | 0.0297 | 0.013 | CCC(=O)N(C)C1CCN(C(=O)Cn2nc(-c3ccncc3)cc2Cc2ccc(F)cc2)CC1 [Example 10, N-(1-{[5-(4-fluorobenzyl)-3-pyridin-4-yl-1H-pyrazol-1-yl]acetyl}piperidin-4-yl)-N-methylpropanamide]
0.012 | 0.00841 | < 0.003 | CC(C)C(=O)N(C)C1CCN(C(=O)Cn2nc(-c3ccncc3)cc2Cc2ccc(F)cc2)CC1 [Example 11, N-(1-{[5-(4-fluorobenzyl)-3-pyridin-4-yl-1H-pyrazol-1-yl]acetyl}piperidin-4-yl)-N,2-dimethylpropanamide]
0.009 | 0.00701 | < 0.003 | CN(C(=O)C1CCC1)C1CCN(C(=O)Cn2nc(-c3ccncc3)cc2Cc2ccc(F)cc2)CC1 [Example 12, N-(1-{[5-(4-fluorobenzyl)-3-pyridin-4-yl-1H-pyrazol-1-yl]acetyl}piperidin-4-yl)-N-methylcyclobutanecarboxamide]
0.009 | 0.0111 | < 0.00346 | CN(C(=O)C1CC1)C1CCN(C(=O)Cn2nc(-c3ccncc3)cc2Cc2ccc(F)cc2)CC1 [Example 13, N-(1-{[5-(4-fluorobenzyl)-3-pyridin-4-yl-1H-pyrazol-1-yl]acetyl}piperidin-4-yl)-N-methylcyclopropanecarboxamide]
0.015 | 0.0236 | 0.013 | CN(C1CCN(C(=O)Cn2nc(-c3ccncc3)cc2Cc2ccc(F)cc2)CC1)S(C)(=O)=O [Example 14, N-(1-{[5-(4-fluorobenzyl)-3-pyridin-4-yl-1H-pyrazol-1-yl]acetyl}piperidin-4-yl)-N-methylmethanesulfonamide]
0.013 | 0.0222 | 0.009 | COC(=O)N(C)C1CCN(C(=O)Cn2nc(-c3ccncc3)cc2Cc2ccc(F)cc2)CC1 [Example 15, Methyl (1-{[5-(4-fluorobenzyl)-3-pyridin-4-yl-1H-pyrazol-1-yl]acetyl}piperidin-4-yl)methylcarbamate]
0.018 | 0.0706 |  | O=C(NC1CCN(C(=O)Cn2nc(-c3ccncc3)cc2Cc2ccc(F)cc2)CC1)C1CCC1 [Example 18, N-(1-{2-[5-(4-fluorobenzyl)-3-pyridin-4-yl-1H-pyrazol-1-yl]acetyl}piperidin-4-yl)cyclobutanecarboxamide]
0.251 | 0.0365 | 0.228 | Fc1ccc(Cc2cc(-c3ccncc3)nn2C2CN(C(c3ccccc3)c3ccccc3)C2)cc1 [Example 20, 4-[1-[1-(diphenylmethyl)azetidin-3-yl]-5-(4-fluorobenzyl)-1H-pyrazol-3-yl]pyridine]
0.072 | 0.166 | 0.084 | CCC(=O)N1CC(n2nc(-c3ccncc3)cc2Cc2ccc(F)cc2)C1 [Example 22, 1-(3-(5-(4-fluorobenzyl)-3-(pyridin-4-yl)-1H-pyrazol-1-yl)azetidin-1-yl)propan-1-one]
0.218 | 0.159 | 0.375 | CS(=O)(=O)N1CC(n2nc(-c3ccncc3)cc2Cc2ccc(F)cc2)C1 [Example 23, 4-{5-(4-fluorobenzyl)-1-[1-(methylsulfonyl)azetidin-3-yl]-1H-pyrazol-3-yl}pyridine]
0.054 | 0.159 |  | OCCn1nc(-c2ccncc2)cc1Cc1ccc(F)cc1 [Example 29, 2-[5-(4-fluorobenzyl)-3-pyridin-4-yl-1H-pyrazol-1-yl]ethanol]
0.04 | 0.0834 |  | O=C(Cn1nc(-c2ccncc2)cc1Cc1ccc(F)cc1)NCCc1cnccn1 [Example 78, 2-[5-(4-fluorobenzyl)-3-pyridin-4-yl-1H-pyrazol-1-yl]-N-(2-pyrazin-2-ylethyl)acetamide]
0.022 | 0.112 |  | C[C@H](CO)NC(=O)Cn1nc(-c2ccncc2)cc1Cc1ccc(F)cc1 [Example 94, 2-[5-(4-fluorobenzyl)-3-pyridin-4-yl-1H-pyrazol-1-yl]-N-[(1R)-2-hydroxy-1-methylethyl]acetamide]
0.046 | 0.106 |  | CC(C)C(=O)NC1CCN(C(=O)Cn2nc(-c3ccncc3)cc2Cc2ccc(F)cc2)CC1 [Example 104, N-(1-{[5-(4-fluorobenzyl)-3-pyridin-4-yl-1H-pyrazol-1-yl]acetyl}piperidin-4-yl)-2-methylpropanamide]
0.036 | 0.055 |  | COC(=O)NC1CCN(C(=O)Cn2nc(-c3ccncc3)cc2Cc2ccc(F)cc2)CC1 [Example 105, methyl (1-{[5-(4-fluorobenzyl)-3-pyridin-4-yl-1H-pyrazol-1-yl]acetyl}piperidin-4-yl)carbamate]
0.023 | 0.0782 |  | CCNC(=O)NC1CCN(C(=O)Cn2nc(-c3ccncc3)cc2Cc2ccc(F)cc2)CC1 [Example 106, 1-ethyl-3-(1-{[5-(4-fluorobenzyl)-3-pyridin-4-yl-1H-pyrazol-1-yl]acetyl}piperidin-4-yl)urea]
0.029 | 0.165 |  | CNC(=O)NC1CCN(C(=O)Cn2nc(-c3ccncc3)cc2Cc2ccc(F)cc2)CC1 [Example 107, 1-(1-{[5-(4-fluorobenzyl)-3-pyridin-4-yl-1H-pyrazol-1-yl]acetyl}piperidin-4-yl)-3-methylurea]
0.241 | 0.0881 |  | O=C(Cn1nc(-c2c[nH]cn2)cc1Cc1ccc(F)cc1)N1CCN(c2ncccn2)CC1 [Example 108, 2-(4-{[5-(4-fluorobenzyl)-3-(1H-imidazol-4-yl)-1H-pyrazol-1-yl]acetyl}piperazin-1-yl)pyrimidine]
0.036 | 0.0643 |  | CC(=O)N(C)C1CCN(C(=O)Cn2nc(-c3ccncc3)cc2Cc2ccc(F)cc2)CC1 [Example 109, N-(1-{[5-(4-fluorobenzyl)-3-pyridin-4-yl-1H-pyrazol-1-yl]acetyl}piperidin-4-yl)-N-methylacetamide]
0.016 | 0.0158 |  | CCS(=O)(=O)N(C)C1CCN(C(=O)Cn2nc(-c3ccncc3)cc2Cc2ccc(F)cc2)CC1 [Example 110, N-(1-{[5-(4-fluorobenzyl)-3-pyridin-4-yl-1H-pyrazol-1-yl]acetyl}piperidin-4-yl)-N-methylethane-sulfonamide]
